From PubChem BioAssay (NCI) come the findings set out here.

Test systems include EKVX NSCLC; K-562 leukemia; MCF7 breast; NCI-H460 lung; NCI/ADR-RES ovarian; RXF 393 renal; SK-MEL-5 melanoma; SNB-75 CNS; SR leukemia; T-47D breast.
Holding throughout (experiment): NCI anticancer screen, dose series, 48 h

“And” between values parts separate entries of the source, which are not always exact repeats. Equal entries are not always repeated.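 Grown in 96-well plates, cells were treated for 48 hours with each compound at five concentrations. Insufficient inhibition: endpoint recorded as highest concentration tested. GI50: concentration for 50% inhibition of growth. TGI: concentration producing complete growth inhibition.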

Take `C=C(C)[C@@H]1CC[C@]2(C(=O)NCCNCCNCCN)CC[C@]3(C)[C@H](CC[C@@H]4[C@@]5(C)CCC(=O)C(C)(C)[C@@H]5CC[C@]43C)[C@@H]12`: the GI50 in the test with EKVX NSCLC was 7.34 µM; in the test on K-562 leukemia, 8.2 µM; in the test on MCF7 breast, 7.38 µM; in the test with NCI-H460 lung, 9.4 µM; in the test with NCI/ADR-RES ovarian, 8.41 µM; in the test on RXF 393 renal it was 5.6 µM. Moreover, the GI50 with SK-MEL-5 melanoma was 6.99 µM; in the test with SNB-75 CNS, 6.25 µM; in the test on SR leukemia, 5.91 µM; in the test on T-47D breast it was 7.52 µM. Further, the TGI in the test on EKVX NSCLC amounted to 14 µM; in the test on K-562 leukemia, 21.8 µM; with MCF7 breast, 15.5 µM; in the test with NCI-H460 lung, 18.1 µM; in the test on NCI/ADR-RES ovarian it was 16.6 µM; in the test with RXF 393 renal, 12.5 µM. Moreover, the TGI amounted to 13.5 µM in the test on SK-MEL-5 melanoma, 14.1 µM with SNB-75 CNS, 20.1 µM in the test on SR leukemia and 18.7 µM in the test on T-47D breast.
In the case of `C[C@@H]1COC(Nc2ccc3ncnc(Nc4ccc(OCc5nccs5)c(Cl)c4)c3c2)=N1`, the GI50 in the test with EKVX NSCLC was 0.252 µM; with K-562 leukemia, 4.05 µM and 4.08 µM; with MCF7 breast, 4.97 µM and 5.73 µM; in the test with NCI-H460 lung, 8.17 µM and 8.76 µM; in the test on NCI/ADR-RES ovarian, 2.6 µM and 2.64 µM; in the test with RXF 393 renal, > 10 µM and 6.81 µM. For the same compound, the GI50 is 2.21 µM and 2.98 µM in the test on SK-MEL-5 melanoma; 8.88 µM and 6.83 µM with SNB-75 CNS; 6.79 µM and 3.97 µM with SR leukemia; 0.286 µM and 1.03 µM in the test with T-47D breast. The TGI with EKVX NSCLC was > 10 µM; with K-562 leukemia, > 10 µM and 33.2 µM; in the test on MCF7 breast it was > 10 µM and 24 µM; in the test with NCI-H460 lung it was > 10 µM and 26.5 µM; in the test with NCI/ADR-RES ovarian, > 10 µM and 12 µM; with RXF 393 renal it was > 10 µM and 20.7 µM. Moreover, the TGI in the test with SK-MEL-5 melanoma is 6.42 µM and 10.6 µM; in the test with SNB-75 CNS it was > 10 µM and 21.4 µM; in the test on SR leukemia it was > 10 µM and 21.9 µM; in the test with T-47D breast, > 10 µM and 12.5 µM.
With `O=C(/C=C\c1ccc2ccccc2n1)c1cc(Cl)ccc1O`, the GI50 is 13.7 µM in the test with EKVX NSCLC; 3.46 µM in the test with K-562 leukemia; 6.48 µM with MCF7 breast; 16 µM in the test with NCI-H460 lung; 2.6 µM in the test on NCI/ADR-RES ovarian; 2.3 µM in the test with RXF 393 renal. In addition, the GI50 in the test on SK-MEL-5 melanoma was 13.4 µM; in the test with SNB-75 CNS, 6.58 µM; in the test with SR leukemia, 2.48 µM; with T-47D breast, 3.68 µM. Also, the TGI with EKVX NSCLC was 87.5 µM; in the test on K-562 leukemia it was 23.2 µM; in the test on MCF7 breast, > 100 µM; in the test with NCI-H460 lung, 42.6 µM; in the test with NCI/ADR-RES ovarian, 8.04 µM; with RXF 393 renal it was 6.36 µM. Moreover, the TGI in the test on SK-MEL-5 melanoma was found to be 37.5 µM; in the test with SNB-75 CNS, 21 µM; in the test with SR leukemia it was 8.11 µM; in the test with T-47D breast it was 19 µM.
Take `CN(C)S(=O)(=O)c1ccc(Nc2ccc(O)c3c2C(=O)c2c([N+](=O)[O-])ccc(O)c2C3=O)cc1`: the TGI in the test with EKVX NSCLC, with K-562 leukemia, in the test on MCF7 breast, with NCI-H460 lung, in the test on NCI/ADR-RES ovarian and in the test with RXF 393 renal was > 100 µM throughout. In addition, the TGI with SK-MEL-5 melanoma, in the test with SNB-75 CNS, in the test on SR leukemia and in the test with T-47D breast was > 100 µM in each case.
Turning to `COC(=O)[C@]12CC=C3O[C@@H]4OC5(CCCCC5)O[C@@H]4[C@H]3C1C(=O)C=CC2=O` (some centres undefined), the TGI in the test with EKVX NSCLC is 52.1 µM; in the test with K-562 leukemia it was 65 µM; in the test with MCF7 breast, 35.5 µM; in the test with NCI-H460 lung it was 45.5 µM; in the test on NCI/ADR-RES ovarian, 38.5 µM; in the test with RXF 393 renal, 25.8 µM. Also, the TGI with SK-MEL-5 melanoma is 32.8 µM; in the test on SNB-75 CNS, 34.7 µM; in the test with SR leukemia, > 76.8 µM; in the test with T-47D breast it was 42.5 µM.
In the case of `Cc1cc(C)c2c(N)c3cccc(C)c3nc2n1`, the GI50 with EKVX NSCLC is 3.17 µM; in the test on K-562 leukemia, 2.36 µM; with MCF7 breast, 2.14 µM; with NCI-H460 lung, 1.4 µM; in the test with NCI/ADR-RES ovarian, 1.54 µM; in the test on RXF 393 renal, 1.64 µM. In addition, the GI50 with SK-MEL-5 melanoma was 1.44 µM; in the test on SNB-75 CNS, 1.83 µM; with SR leukemia it was 0.703 µM; in the test with T-47D breast, 2.03 µM. Also, the TGI in the test with EKVX NSCLC was 33.5 µM; in the test with K-562 leukemia, 8.71 µM; with MCF7 breast, 10.3 µM; with NCI-H460 lung, 4.22 µM; with NCI/ADR-RES ovarian, 3.99 µM; in the test on RXF 393 renal, 3.57 µM. Further, the TGI in the test with SK-MEL-5 melanoma was found to be 2.74 µM; in the test with SNB-75 CNS it was 6.63 µM; with SR leukemia, 3.94 µM; in the test with T-47D breast, 6.25 µM.
For `Oc1ccc(CN(Cc2ccc(C(F)(F)F)cc2)Cc2ccc(O)c3ncccc23)c2cccnc12`, the GI50 in the test with EKVX NSCLC was 0.0482 µM; in the test with K-562 leukemia, 0.0224 µM; with MCF7 breast, < 0.01 µM; in the test on NCI-H460 lung it was < 0.01 µM; in the test with NCI/ADR-RES ovarian it was < 0.01 µM; with RXF 393 renal, 0.0485 µM. The GI50 was 0.0278 µM in the test on SK-MEL-5 melanoma, 0.0172 µM in the test with SNB-75 CNS, 0.04 µM in the test with SR leukemia and 0.028 µM in the test with T-47D breast. The TGI was > 100 µM in the test on EKVX NSCLC; > 100 µM in the test on K-562 leukemia; > 100 µM in the test on MCF7 breast; 0.111 µM in the test with NCI-H460 lung; > 100 µM in the test on NCI/ADR-RES ovarian; 0.16 µM in the test with SK-MEL-5 melanoma. Moreover, the TGI with SNB-75 CNS, with SR leukemia and in the test with T-47D breast was > 100 µM in each case.
Consider `CCOC(=O)C1=C(c2ccccc2)N(c2ccc(OC)cc2)[C@]2(C#N)C(O)=C(Cl)C(Cl)=C(O)[C@]12C#N`, for which the GI50 with EKVX NSCLC is 40.1 µM; in the test with K-562 leukemia, 17.6 µM; in the test with MCF7 breast, 18.7 µM; in the test on NCI-H460 lung, 35 µM; with NCI/ADR-RES ovarian it was 15.6 µM; with RXF 393 renal it was 17.4 µM. Moreover, the GI50 is 22.1 µM in the test on SK-MEL-5 melanoma, 18.4 µM in the test on SNB-75 CNS, 11.5 µM in the test with SR leukemia and 21.2 µM in the test on T-47D breast. Besides, the TGI with EKVX NSCLC was > 100 µM; in the test on K-562 leukemia, 34.6 µM; in the test with MCF7 breast, 36.1 µM; with NCI-H460 lung it was > 100 µM; in the test on NCI/ADR-RES ovarian, 36.5 µM; in the test on RXF 393 renal, 31.5 µM. The TGI is 51.9 µM with SK-MEL-5 melanoma, 36.7 µM in the test with SNB-75 CNS, 28.8 µM in the test on SR leukemia and 44.9 µM with T-47D breast.
